Source: ChEMBL document CHEMBL2073790, “TP-search Transporter Database” (Jpn Pharmacol Ther, 1998)

Legend:
[1] = molecular target: T1, Solute carrier organic anion transporter family member 1A1 (Rattus norvegicus, UniProt P46720); test: (§1) TP_TRANSPORTER: Northern blot in vivo Wistar rat; assay type: functional, organism-based
T1 sequence (P46720 whole entry): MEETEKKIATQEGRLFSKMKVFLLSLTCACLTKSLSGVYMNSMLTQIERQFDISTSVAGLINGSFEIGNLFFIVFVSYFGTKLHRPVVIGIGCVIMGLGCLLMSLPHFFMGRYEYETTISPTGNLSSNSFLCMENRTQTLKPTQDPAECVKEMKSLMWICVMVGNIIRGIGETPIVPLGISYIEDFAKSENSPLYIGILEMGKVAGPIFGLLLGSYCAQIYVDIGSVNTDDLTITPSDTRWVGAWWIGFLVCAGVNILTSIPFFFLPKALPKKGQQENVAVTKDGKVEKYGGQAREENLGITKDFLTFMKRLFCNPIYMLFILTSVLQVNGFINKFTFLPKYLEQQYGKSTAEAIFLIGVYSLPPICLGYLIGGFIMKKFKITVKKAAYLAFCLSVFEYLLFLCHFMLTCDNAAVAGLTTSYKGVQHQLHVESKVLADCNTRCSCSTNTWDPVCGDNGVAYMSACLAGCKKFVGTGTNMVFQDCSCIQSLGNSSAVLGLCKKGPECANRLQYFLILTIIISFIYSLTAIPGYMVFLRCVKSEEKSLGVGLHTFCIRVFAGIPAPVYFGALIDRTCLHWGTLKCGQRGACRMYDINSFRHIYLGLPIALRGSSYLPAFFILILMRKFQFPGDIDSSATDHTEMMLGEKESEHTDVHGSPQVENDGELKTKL

[2] = molecular target: Multidrug resistance protein 1a (Rattus norvegicus) (UniProt Q6PSM0); test: as §1; assay type: functional, organism-based
Sequence of Multidrug resistance protein 1a (Rattus norvegicus) (Q6PSM0 as listed by the source): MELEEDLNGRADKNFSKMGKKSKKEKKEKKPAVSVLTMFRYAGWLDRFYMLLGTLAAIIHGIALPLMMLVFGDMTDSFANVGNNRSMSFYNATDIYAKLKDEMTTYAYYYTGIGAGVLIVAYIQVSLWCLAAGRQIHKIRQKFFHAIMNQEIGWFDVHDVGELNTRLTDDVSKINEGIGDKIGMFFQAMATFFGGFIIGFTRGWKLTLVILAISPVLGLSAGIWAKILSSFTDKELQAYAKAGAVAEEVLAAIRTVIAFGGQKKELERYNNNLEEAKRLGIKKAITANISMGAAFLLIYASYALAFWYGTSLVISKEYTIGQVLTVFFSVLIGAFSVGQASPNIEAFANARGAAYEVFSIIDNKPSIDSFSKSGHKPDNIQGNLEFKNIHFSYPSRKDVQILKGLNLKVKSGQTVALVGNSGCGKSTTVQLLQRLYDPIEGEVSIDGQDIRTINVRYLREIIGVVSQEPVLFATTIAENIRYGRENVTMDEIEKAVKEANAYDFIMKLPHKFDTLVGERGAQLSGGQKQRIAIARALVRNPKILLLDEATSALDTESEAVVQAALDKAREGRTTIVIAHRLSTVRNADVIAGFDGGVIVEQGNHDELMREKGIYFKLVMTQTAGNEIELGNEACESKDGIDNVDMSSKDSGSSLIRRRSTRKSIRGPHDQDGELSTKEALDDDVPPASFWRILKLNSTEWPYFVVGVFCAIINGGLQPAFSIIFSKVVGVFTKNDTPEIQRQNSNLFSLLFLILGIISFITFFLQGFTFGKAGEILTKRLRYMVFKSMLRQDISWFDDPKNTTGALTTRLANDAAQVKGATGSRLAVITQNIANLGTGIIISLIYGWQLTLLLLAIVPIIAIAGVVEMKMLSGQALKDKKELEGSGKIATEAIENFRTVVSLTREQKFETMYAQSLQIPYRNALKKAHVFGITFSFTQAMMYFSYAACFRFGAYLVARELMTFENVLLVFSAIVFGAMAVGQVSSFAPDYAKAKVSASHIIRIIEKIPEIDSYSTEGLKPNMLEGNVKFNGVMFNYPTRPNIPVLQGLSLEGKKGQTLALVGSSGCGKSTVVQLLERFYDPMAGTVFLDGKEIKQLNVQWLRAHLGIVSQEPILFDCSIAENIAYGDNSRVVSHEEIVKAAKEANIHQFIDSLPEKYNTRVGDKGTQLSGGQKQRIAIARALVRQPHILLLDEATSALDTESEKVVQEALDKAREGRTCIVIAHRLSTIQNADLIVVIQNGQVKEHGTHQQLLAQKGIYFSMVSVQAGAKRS

With `O=C=Nc1cccc2ccccc12` [alpha-naphthylisocyanate] the Activity [1] was “inducer [+]” and the Activity [2] was “inducer [+]”.
